# Measurements taken from PubChem BioAssay AID330 (DTP/NCI, 2004).
# “And” between values parts separate entries of the source, which are not always exact repeats. Equal entries are not always repeated. Toxic doses and inconclusive results are not listed.
# Tested on: P388 leukemia ip, CD2F1 mice, survival T/C
# Test: NCI In Vivo Anticancer Drug Screen. Data for tumor model P388 Leukemia (intraperitoneal) in CD2F1 (CDF1) mice
# Conditions: endpoint: median survival time, higher = longer survival
# Summary of the method: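 Mice carrying the transplanted tumor received test compound or vehicle. Survival was recorded in each group, and the value is the treated-group measurement divided by that of the vehicle-treated control group.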
# [1] = dose: 50.0 mg/kg/injection, schedule: Q01DX009 (ip), vehicle: saline with Tween-80
# [2] = dose: 50.0 mg/kg/injection, schedule: Q01DX009 (ip), vehicle: saline
# [3] = dose: 100.0 mg/kg/injection, schedule: Q01DX009 (ip), vehicle: saline with Tween-80
# [4] = dose: 100.0 mg/kg/injection, schedule: Q01DX009 (ip), vehicle: saline
# [5] = dose: 200.0 mg/kg/injection, schedule: Q01DX009 (ip), vehicle: saline with Tween-80
# [6] = dose: 200.0 mg/kg/injection, schedule: Q01DX009 (ip), vehicle: saline
# [7] = dose: 100.0 mg/kg/injection, schedule: Q04DX003 (ip), vehicle: saline with Tween-80
# [8] = dose: 25.0 mg/kg/injection, schedule: Q01DX005 (ip), vehicle: Klucel (hydroxypropylcellulose) (HPC)
# [9] = dose: 50.0 mg/kg/injection, schedule: Q01DX005 (ip), vehicle: Klucel (hydroxypropylcellulose) (HPC)
# [10] = dose: 100.0 mg/kg/injection, schedule: Q01DX005 (ip), vehicle: Klucel (hydroxypropylcellulose) (HPC)
smiles,measurement,setting,value
c1ccc2c(c1)Nc1c(ccc3ccccc13)S2,T/C,[1],95 % of control
same,T/C,[2],102 % of control
same,T/C,[3],112 % of control
same,T/C,[4],98 % of control
same,T/C,[5],113 % of control
same,T/C,[6],109 % of control
same,T/C,"dose: 400.0 mg/kg/injection, schedule: Q01DX009 (ip), vehicle: saline with Tween-80",113 % of control
same,T/C,"dose: 400.0 mg/kg/injection, schedule: Q01DX009 (ip), vehicle: saline",100 % of control
COc1ccc(C[n+]2ccc3c([N+](=O)[O-])cccc3c2)cc1,T/C,"dose: 7.5 mg/kg/injection, schedule: Q01DX005 (ip), vehicle: saline + Tween-80 + alcohol",111 % of control
same,T/C,"dose: 15.0 mg/kg/injection, schedule: Q01DX005 (ip), vehicle: saline + Tween-80 + alcohol",116 % of control
same,T/C,"dose: 30.0 mg/kg/injection, schedule: Q01DX005 (ip), vehicle: saline + Tween-80 + alcohol",116 % of control
COc1ccc2c(c1)CCC1(C)C2=CC(=O)/C1=C\[O-].COc1ccc2c(c1)CCC1(C)C2=CC(=O)/C1=C\[O-].[Cu+2] (centres undefined),T/C,"dose: 25.0 mg/kg/injection, schedule: Q04DX003 (ip), vehicle: saline with Tween-80",90 % of control
same,T/C,"dose: 50.0 mg/kg/injection, schedule: Q04DX003 (ip), vehicle: saline with Tween-80",90 % of control
same,T/C,[7],86 % of control
CCC(C)Sc1nc(N)nc2c1ncn2C1OC(CO)C(O)C1O (centres undefined),T/C,"dose: 44.0 mg/kg/injection, schedule: Q01DX009 (ip), vehicle: saline with Tween-80",100 % of control
same,T/C,"dose: 66.0 mg/kg/injection, schedule: Q01DX009 (ip), vehicle: saline with Tween-80",100 % of control
same,T/C,[3],95 % of control
same,T/C,"dose: 150.0 mg/kg/injection, schedule: Q01DX009 (ip), vehicle: saline with Tween-80",104 % of control
same,T/C,"dose: 176.0 mg/kg/injection, schedule: Q04DX003 (ip), vehicle: saline with Tween-80",114 % of control
same,T/C,[5],120 % of control
same,T/C,"dose: 264.0 mg/kg/injection, schedule: Q04DX003 (ip), vehicle: saline with Tween-80",123 % of control
C[C@]12CC[C@@H](OC(=O)N(CCCl)N=O)C[C@@H]1CC[C@@H]1[C@@H]2CC[C@]2(C)C(=O)CC[C@@H]12,T/C,"dose: 25.0 mg/kg/injection, schedule: Q01DX005 (ip), vehicle: other",105 % of control
same,T/C,"dose: 25.0 mg/kg/injection, schedule: Q01DX009 (ip), vehicle: other",121 % of control
same,T/C,"dose: 31.2 mg/kg/injection, schedule: Q04DX003 (ip), vehicle: saline",111 % of control
same,T/C,"dose: 50.0 mg/kg/injection, schedule: Q01DX005 (ip), vehicle: other",122 % of control
same,T/C,"dose: 50.0 mg/kg/injection, schedule: Q01DX009 (ip), vehicle: other",123 % of control
same,T/C,[1],97 % of control
same,T/C,"dose: 62.5 mg/kg/injection, schedule: Q04DX003 (ip), vehicle: saline",109 % of control
same,T/C,"dose: 100.0 mg/kg/injection, schedule: Q01DX005 (ip), vehicle: other",114 % of control
same,T/C,[3],100 % of control
same,T/C,"dose: 125.0 mg/kg/injection, schedule: Q04DX003 (ip), vehicle: saline",108 % of control and 112 % of control
same,T/C,[5],97 % of control
same,T/C,"dose: 250.0 mg/kg/injection, schedule: Q04DX003 (ip), vehicle: saline",100 % of control
O=C(O)c1cc(-c2ccc(Cl)cc2)nc2c1ccc1ccccc12,T/C,[8],100 % of control
same,T/C,[9],100 % of control
same,T/C,[10],100 % of control
Cc1cc[n+](CCc2c[nH]c3ccccc23)cc1C,T/C,"dose: 12.5 mg/kg/injection, schedule: Q01DX005 (ip), vehicle: saline",100 % of control
same,T/C,"dose: 25.0 mg/kg/injection, schedule: Q01DX005 (ip), vehicle: saline",97 % of control
same,T/C,"dose: 50.0 mg/kg/injection, schedule: Q01DX005 (ip), vehicle: saline",105 % of control and 95 % of control
O=C(c1ccccc1)c1c(-c2ccccc2)noc1-c1ccccc1,T/C,"dose: 100.0 mg/kg/injection, schedule: Q04DX003 (ip), vehicle: saline",109 % of control
same,T/C,"dose: 200.0 mg/kg/injection, schedule: Q04DX003 (ip), vehicle: saline",100 % of control
same,T/C,"dose: 400.0 mg/kg/injection, schedule: Q04DX003 (ip), vehicle: saline",108 % of control
O=P1(NCCCl)OCCCN1CCCl (centres undefined),T/C,"dose: 25.0 mg/kg/injection, schedule: Q01DX009 (ip), vehicle: saline",184 % of control
same,T/C,"dose: 30.0 mg/kg/injection, schedule: Q01DX005 (iv), vehicle: saline",157 % of control
same,T/C,[2],270 % of control
same,T/C,"dose: 60.0 mg/kg/injection, schedule: Q01DX005 (ip), vehicle: saline",195 % of control
same,T/C,"dose: 60.0 mg/kg/injection, schedule: Q01DX005 (iv), vehicle: saline",186 % of control
same,T/C,[4],282 % of control
same,T/C,"dose: 120.0 mg/kg/injection, schedule: Q01DX005 (ip), vehicle: saline",280 % of control
same,T/C,"dose: 120.0 mg/kg/injection, schedule: Q01DX005 (iv), vehicle: saline",241 % of control
same,T/C,[6],111 % of control
same,T/C,"dose: 240.0 mg/kg/injection, schedule: Q01DX005 (ip), vehicle: saline",280 % of control
same,T/C,"dose: 240.0 mg/kg/injection, schedule: Q01DX005 (iv), vehicle: saline",252 % of control
same,T/C,"dose: 289.0 mg/kg/injection, schedule: Q01DX001 (ip), vehicle: saline",233 % of control
same,T/C,"dose: 431.0 mg/kg/injection, schedule: Q01DX001 (ip), vehicle: saline",582 % of control
same,T/C,"dose: 538.0 mg/kg/injection, schedule: Q01DX001 (ip), vehicle: saline",582 % of control
same,T/C,"dose: 646.0 mg/kg/injection, schedule: Q01DX001 (ip), vehicle: saline",242 % of control
Cc1ccc(S(=O)(=O)OC2CC(C(=O)O)N(S(=O)(=O)c3ccc(C)cc3)C2)cc1 (centres undefined),T/C,[7],100 % of control
same,T/C,"dose: 200.0 mg/kg/injection, schedule: Q04DX003 (ip), vehicle: saline with Tween-80",95 % of control
same,T/C,"dose: 400.0 mg/kg/injection, schedule: Q04DX003 (ip), vehicle: saline with Tween-80",95 % of control
CCn1c2ccccc2c2ccc(N=Nc3ccccc3)cc21,T/C,"dose: 100.0 mg/kg/injection, schedule: Q04DX003 (ip), vehicle: Klucel (hydroxypropylcellulose) (HPC)",100 % of control
same,T/C,"dose: 200.0 mg/kg/injection, schedule: Q04DX003 (ip), vehicle: Klucel (hydroxypropylcellulose) (HPC)",100 % of control
same,T/C,"dose: 400.0 mg/kg/injection, schedule: Q04DX003 (ip), vehicle: Klucel (hydroxypropylcellulose) (HPC)",105 % of control
COC(=O)C12CCC(CC1C13CCCC(C)(C)C1C(=O)OC3)C(C)C2O (centres undefined),T/C,"dose: 100.0 mg/kg/injection, schedule: Q04DX002 (ip), vehicle: saline with Tween-80",96 % of control
same,T/C,"dose: 200.0 mg/kg/injection, schedule: Q04DX002 (ip), vehicle: saline with Tween-80",94 % of control
same,T/C,"dose: 400.0 mg/kg/injection, schedule: Q04DX002 (ip), vehicle: saline with Tween-80",94 % of control
C[n+]1cccc2c1-c1ccccc1C2=O,T/C,[8],101 % of control
same,T/C,[9],115 % of control
same,T/C,[10],101 % of control
same,T/C,"dose: 200.0 mg/kg/injection, schedule: Q01DX005 (ip), vehicle: Klucel (hydroxypropylcellulose) (HPC)",91 % of control
CC(=O)OC1CC2(C)C(c3ccoc3)CC3OC32C2(C)C(=O)C(O)=C3C(C)(C)C(=O)C=CC3(C)C12 (centres undefined),T/C,"dose: 3.0 mg/kg/injection, schedule: Q01DX009 (ip), vehicle: Klucel (hydroxypropylcellulose) (HPC)",96 % of control
same,T/C,"dose: 6.0 mg/kg/injection, schedule: Q01DX009 (ip), vehicle: Klucel (hydroxypropylcellulose) (HPC)",100 % of control
same,T/C,"dose: 12.0 mg/kg/injection, schedule: Q01DX009 (ip), vehicle: Klucel (hydroxypropylcellulose) (HPC)",100 % of control
same,T/C,"dose: 24.0 mg/kg/injection, schedule: Q01DX009 (ip), vehicle: Klucel (hydroxypropylcellulose) (HPC)",99 % of control
CCC[As](CCC)SC1CCC2(C)C(=CCC3C4CCC(=O)C4(C)CCC32)C1 (centres undefined),T/C,"dose: 12.5 mg/kg/injection, schedule: Q01DX009 (ip), vehicle: distilled water + Tween-80",98 % of control
same,T/C,"dose: 25.0 mg/kg/injection, schedule: Q01DX009 (ip), vehicle: distilled water + Tween-80",98 % of control
same,T/C,"dose: 50.0 mg/kg/injection, schedule: Q01DX009 (ip), vehicle: distilled water + Tween-80",95 % of control
same,T/C,"dose: 100.0 mg/kg/injection, schedule: Q01DX009 (ip), vehicle: distilled water + Tween-80",92 % of control
same,T/C,"dose: 200.0 mg/kg/injection, schedule: Q01DX009 (ip), vehicle: distilled water + Tween-80",98 % of control
